≈ marks a conversion by molar mass, not a printed value.
Columns and labels:
Type in all cases: functional
[1] = test system: Staphylococcus aureus; experiment: Antibacterial activity against staphylococcus aureus ATCC 25923
[2] = test system: Escherichia coli; experiment: Antibacterial activity against Escherichia coli ATCC […]
[3] = test system: Mycobacterium tuberculosis; experiment: Antibacterial activity against Mycobacterium tuberculosis H37Rv by microdilution resazurin assay
[4] = test system: Candida; experiment: Antifungal activity against Candida sp.
[5] = test system: Pseudomonas aeruginosa; experiment: Antibacterial activity against Pseudomonas aeruginosa ATCC 27753

Row | Compound | MIC [1] [µg/mL] | MIC [2] [µg/mL] | MIC [3] [µg/mL] | MIC [4] [µg/mL] | MIC [5] [µg/mL]
1 | CC(C)C/C=C/[C@@H](C)[C@H]1CC[C@@H]2[C@]1(C)CC=C1[C@]23C=C[C@]2(C[C@@H](O)CC[C@]12C)OO3 | > 512 | > 512 | 16 (≈ 38.8 µM) | > 512 | > 512
2 | Cn1c([N+](=O)[O-])cnc1C#Cc1ccnc(N)n1 | > 512 | > 512 | 16 (≈ 65.5 µM) | > 512 | > 512
3 | CC[C@@H](/C=C/[C@@H](C)[C@H]1CC[C@@H]2[C@]1(C)CC[C@H]1[C@]23C=C[C@]2(C[C@@H](O)CC[C@]12C)OO3)C(C)C | > 512 | > 512 | 64 (≈ 145 µM) | > 512 | > 512
4 | CC(C)[C@@H](C)/C=C/[C@@H](C)[C@H]1CC[C@@H]2[C@]1(C)CC=C1[C@]23C=C[C@]2(C[C@@H](O)CC[C@]12C)OO3 | > 512 | > 512 | 16 (≈ 37.5 µM) | > 512 | > 512
5 | O=C(O)c1cn(C2CC2)c2cc(N3CCNCC3)c(F)cc2c1=O [CIPROFLOXACIN] | 0.5 (≈ 1.51 µM) | – | 0.5 (≈ 1.51 µM) | – | 1 (≈ 3.02 µM)
6 | CC(C)[C@@H](C)/C=C/[C@@H](C)[C@H]1CC[C@@H]2[C@]1(C)CC[C@H]1[C@]23C=C[C@]2(C[C@@H](O)CC[C@]12C)OO3 [ERGOSTEROL PEROXIDE] | > 512 | > 512 | 64 (≈ 149 µM) | > 512 | > 512
7 | Clc1ccc(COC(Cn2ccnc2)c2ccc(Cl)cc2Cl)c(Cl)c1 (centres undefined) [MICONAZOLE] | – | – | – | 0.25 (≈ 0.601 µM) | –
